From paper PMC10876507, “Chelator impact: investigating the pharmacokinetic behavior of copper-64 labeled PD-L1 radioligands” (EJNMMI Radiopharmacy and Chemistry, 2024)
Values joined by “and” are separate entries in the source; they are usually repeats but may differ in a detail not shown here. Equal entries are not always repeated.

How the values were obtained:
[1] = n-octanol/PBS pH 7.4, shake flask
Method: The n-octanol/water distribution coefficients for each radioligand were determined using the shake-flask method. Each experiment was conducted in triplicate. To initiate the experiment, 30 µL of the labeling mixture was combined with 570 µL of PBS (pH 7.4) and 600 µL of n-octanol in a 1.5 mL Eppendorf-Tube. The resulting mixture was shaken at room temperature at 1500 rpm for 5 min before undergoing centrifugation. An aliquot was extracted from each phase, and radioactivity was measured on a γ-counter (ISOMED 2160). Subsequently, mean values were calculated and adjusted for background activity. The log D7.4 value was determined utilizing the equation: logD7.4=logAn-octanol/APBS

[2] = biological target: T1, PD-L1 (Homo sapiens, UniProt Q9NZQ7); test: Real-time radioligand binding (LigandTracer) on PC3 PD-L1 overexpressing cells, without BSA; parameters: expressed in transfected cells; host or cells: PC3 PD-L1 overexpressing cells
Method: For the saturation binding experiments, cells were detached with 0.05% Trypsin–EDTA (Gibco, USA), and counted (CASY1 cell counter, Schaerfe System, Reutlingen, Germany). Cells were then diluted in medium to ~ 160,000 cells/mL and seeded in 48 well plates (Falcon Multiwell #353078, ThermoFisher, Karlsruhe, Germany) for at least 2 days prior to saturation binding experiments. For real-time radioligand binding, approximately 400,000 cells/mL were seeded into one side of petri dishes (3 mL, Nunclon, # 150350, ThermoFisher Germany) ~ 24 h before the experiments.
To investigate binding kinetics, including the association rate constant (ka) and dissociation rate constant (kd), as well as the dissociation constant (KD), a real-time assay system (LigandTracer Yellow or LigandTracer White, Ridgeview Instruments AB, Uppsala, Sweden) was utilized. The petri dish contained attached cells in medium (3 mL) on one side, while radioactivity was detected on the opposing side. The petri dish is set upon an inclined base, allowing continuous measurement of alternating portions of the dish for bound radioligand (cells) compared to the background signal (no cells). Binding experiments were carried out at room temperature using CO2-independent medium (Gibco #18045088, ThermoFisher Germany).
The association phase consisted of incubation with two concentrations (30 and 90 nM, each for 90 min) of our ^64Cu-labeled PD-L1-radioligands, binding to PC3 PD-L1 overexpressing cells. Following this, the incubation medium was replaced with fresh medium, and the dissociation phase was monitored for a minimum of 2 h. […] Data were recorded as decay-corrected counts per second (CPS). Subsequently, binding data were analyzed using TraceDrawer software (version 1.9.2, Ridgeview Instruments AB, Uppsala, Sweden). Traces were imported, potential spikes (instances of sudden CPS increases exceeding 100% of the previous data point) were eliminated, and each trace was normalized to its own baseline (set as 0%) and its maximum value (set as 100%).

[3] = Proteolytic stability in human serum at 37 °C, radio-HPLC; type: in vitro ADME; settings: 48 h
Method: For proteolytic stability studies, a solution of the radiolabeled compound was diluted with human serum in a ratio of 1:10. This mixture then underwent incubation at 37 °C while being shaken at 300 rpm. At each designated timepoint (1, 24 and 48 h), an aliquot was withdrawn and added to a detergent solution (water with 20% v/v EtOH, 5% v/v 5 mM aqueous EDTA, 0.5% v/v Triton X-100, 0.1% m/v saponin, 0.05% v/v 0.5 mM aqueous o-phenanthroline) in a ratio of 1:2 for precipitation of serum proteins. The mixture was cooled on ice for 5 min, followed by centrifugation at 12,000 g for 5 min. A minor portion of the resulting supernatant was subjected to analytical radio-HPLC (reversed-phase, Phenomenex Jupiter 300 C-18, 5 µm, 4.6 × 250 mm) with 10–95% acetonitrile (0.1% TFA) in water (0.1% TFA) in a linear gradient over 15 min, 1 mL/min, γ-detection). The assessment and graphical representations were performed using OriginPro® 9.0.

[4] = biological target: T1, PD-L1; test: Saturation binding assay on human PD-L1 transduced PC3 cells (assay buffer with 2.5% BSA); parameters: expressed in transfected cells; host or cells: PC3 cells transduced with human PD-L1 (PC3-PD-L1)
[5] = test system: PC3 PD-L1 overexpressing and PD-L1-mock tumors; test: PET imaging in NMRI-nude mice bearing PC3 PD-L1 and PC3 mock tumors; type: in vivo; settings: for excretion pattern / clearance route in PET: PET 0–25 h p.i.; for SUVmax PC3 PD-L1 tumor / SUVmax PC3 mock tumor / SUVmax kidney / SUVmax liver: tracer only, i.v.
Method: Male athymic NMRI-nude mice (Rj:NMRI-Foxn1nu, Janvier Labs, Le Genest-Saint-Isle, France) aged between 8 to 16 weeks were employed for the study. General anesthesia was induced [~ 10% desflurane (Baxter, Deerfield, IL, USA) in 30 vol% oxygen + air] under controlled warming (37°C), and mice were subcutaneously injected with 3–5 × 10^6 PC3 PD-L1 and PC3 mock cells (in 50 µL PBS + 50 µL Matrigel, Corning, Glendale, CA, USA) into the right and left thigh, respectively. The growth of tumors was systematically monitored three times per week through caliper measurements, and animals with tumor sizes above 7 mm were included in the subsequent experiments.
PET and X-ray computed tomography (CT) scans were conducted under general anesthesia using a small animal nanoScan PET/CT scanner (Mediso, Budapest, Hungary), capable of imaging four animals simultaneously. CT images served attenuation correction and anatomical referencing. A total of three individual scans were conducted, corresponding to the timeframes of 0–2 h (dynamic reconstruction), 4–5 h, and 24–25 h (one frame reconstruction) after injection.
The PD-L1 radiotracer candidates (in 300 µL sterile 0.9% NaCl/HEPES buffer, pH 6–7, containing between 7 and 12 MBq, with molar activities exceeding 12 GBq/µmol) were intravenously delivered over 30 s through a catheter in the lateral tail vein. The PET acquisition was initiated simultaneously with the administration.
The acquired three-dimensional list mode data were sorted and binned within a 400–600 keV energy window, forming […] (15 × 10 s, 5 × 30 s, 5 × 60 s, 4 × 300 s, 3 × 600 s, 3 × 1200 s). Reconstruction of the time frames was accomplished using the Tera-TomoTM 3D algorithm, utilizing a voxel size of 0.4 mm and applying corrections for decay, scatter, and attenuation. The images were subjected to post-processing and analysis using Rover software (ABX GmbH, Radeberg, Germany), and were depicted as maximum intensity projections (MIPs) at the specified timepoints and scaling.
Three-dimensional volumes of interest were defined using fixed thresholding at 35–40% of the maximal measured intensity. Standardized uptake values (SUV = [MBq detected activity/mL tissue] / [MBq injected activity/g body weight], in mL/g) were then calculated within the selected volumes of interest, encompassing PD-L1 and mock tumors, as well as metabolizing organs.

[6] = tracer +500 nM respective unlabeled compound, 1-2 hour p.i., mice
[7] = tracer +500 nM respective unlabeled compound, 4-5 hour p.i., mice
[8] = tracer +500 nM respective unlabeled compound, 24-25 hour p.i., mice
[9] = 1-2 hour p.i., mice, listed as [64Cu]Cu-15
[10] = 1-2 hour p.i., mice, listed as [64Cu]Cu-17
[11] = 4-5 hour p.i., mice, listed as [64Cu]Cu-17
[12] = 24-25 hour p.i., mice, listed as [64Cu]Cu-17

T1 sequence (Q9NZQ7 19-290): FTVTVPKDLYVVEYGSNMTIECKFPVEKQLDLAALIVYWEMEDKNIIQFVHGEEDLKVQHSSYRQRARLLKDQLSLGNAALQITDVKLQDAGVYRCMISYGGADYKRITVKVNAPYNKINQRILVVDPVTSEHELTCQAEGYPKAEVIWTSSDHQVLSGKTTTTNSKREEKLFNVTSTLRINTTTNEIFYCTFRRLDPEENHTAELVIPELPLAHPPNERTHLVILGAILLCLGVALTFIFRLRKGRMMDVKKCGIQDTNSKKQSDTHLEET

Cc1c(COc2cc(OCc3cncc(S(C)(=O)=O)c3)c(CN[C@@H](CS(=O)(=O)O)C(=O)NCCS(=O)(=O)O)cc2Br)cccc1-c1cccc(OCc2cn(CCCN3CCN(C(=O)[C@H](CS(=O)(=O)O)NC(=O)CN4CCCN5CCN(CCCN(CC(=O)[O-])CC5)CC4)CC3)nn2)c1C.[64Cu+2] [[^64Cu]Cu-15]
Log D7.4 [1]: –2.11 ± 0.02
Kd ([2]; PC3 PD-L1 overexpressing cells, room temperature, without BSA): ~20 nM and 19.1 nM
ka ([2]; association rate constant, real-time binding): (5.10 ± 0.55) × 10^3 (M × s)^–1
kd ([2]; dissociation rate constant, real-time binding): (0.96 ± 0.02) × 10^–4 s^–1
intact radioligand after incubation in human serum [3]: 88%
Kd ([4]; human PD-L1 transduced PC3 cells, on ice 90 min, PBS + 2.5% w/v BSA): 185 nM
Bmax ([4]; saturation binding, pmol/mg protein, PC3 PD-L1 cells): 2.58 ± 0.35 pmol/mg
PD-L1 tumor uptake after preinjection of 500 nmol of cold ligand ([5]; blocking, mice): not significantly reduced
excretion pattern / clearance route in PET ([5]; mice): hepatobiliary excretion pattern
SUVmax PC3 PD-L1 tumor, blocking ([5]; tracer +500 nM respective unlabeled compound (injected 5 min prior), 1-2 hour p.i., mice): 1.58
SUVmax PC3 mock tumor, blocking [5, 6]: 1.17
SUVmax kidney, blocking [5, 6]: 7.41
SUVmax liver, blocking [5, 6]: 1.49
SUVmax PC3 PD-L1 tumor, blocking [5, 7]: 0.77
SUVmax PC3 mock tumor, blocking [5, 7]: 0.57
SUVmax kidney, blocking [5, 7]: 0.78
SUVmax liver, blocking [5, 7]: 1.82
SUVmax PC3 PD-L1 tumor, blocking [5, 8]: 0.91
SUVmax PC3 mock tumor, blocking [5, 8]: 0.78
SUVmax kidney, blocking [5, 8]: 0.51
SUVmax liver, blocking [5, 8]: 0.78
SUVmax PC3 PD-L1 tumor ([5]; 1-2 hour p.i., mice): 1.03 ± 0.23
SUVmax PC3 mock tumor ([5]; 1-2 hour p.i., mice): 0.61
SUVmax kidney ([5]; 1-2 hour p.i., mice): 3.26 ± 0.98
SUVmax liver ([5]; 1-2 hour p.i., mice): 3.80 ± 0.33
SUVmax PC3 PD-L1 tumor [5, 9]: 1.03
SUVmax kidney [5, 9]: 3.26
SUVmax liver [5, 9]: 3.80
SUVmax PC3 PD-L1 tumor ([5]; 4-5 hour p.i., mice): 0.66 ± 0.16
SUVmax PC3 mock tumor ([5]; 4-5 hour p.i., mice): 0.44
SUVmax kidney ([5]; 4-5 hour p.i., mice): 0.68
SUVmax liver ([5]; 4-5 hour p.i., mice): 1.41
SUVmax PC3 PD-L1 tumor ([5]; 4-5 hour p.i., mice, listed as [64Cu]Cu-15): 0.66
SUVmax PC3 PD-L1 tumor ([5]; 24-25 hour p.i., mice): 0.90 ± 0.09
SUVmax PC3 mock tumor ([5]; 24-25 hour p.i., mice): 0.76
SUVmax kidney ([5]; 24-25 hour p.i., mice): 0.48
SUVmax liver ([5]; 24-25 hour p.i., mice): 1.01
SUVmax PC3 PD-L1 tumor ([5]; 24-25 hour p.i., mice, listed as [64Cu]Cu-15): 0.90

Cc1c(COc2cc(OCc3cncc(S(C)(=O)=O)c3)c(CN[C@@H](CS(=O)(=O)O)C(=O)NCCS(=O)(=O)O)cc2Br)cccc1-c1cccc(OCc2cn(CCCN3CCN(C(=O)[C@H](CS(=O)(=O)O)NC(=O)CCCC(=O)NC45CNCCNCC(NC(=O)CCCC(=O)N[C@@H](CS(=O)(=O)O)C(=O)N6CCN(CCCn7cc(COc8cccc(-c9cccc(COc%10cc(OCc%11cncc(S(C)(=O)=O)c%11)c(CN[C@@H](CS(=O)(=O)O)C(=O)NCCS(=O)(=O)O)cc%10Br)c9C)c8C)nn7)CC6)(CNCCNC4)CNCCNC5)CC3)nn2)c1C.[64Cu+2] [[^64Cu]Cu-17]
intact radioligand after incubation in human serum [3]: 86%
contrast of PD-L1 positive tumor to PD-L1 negative tumor ([5]; 24–25 h p.i.): 109%
excretion pattern / clearance route in PET ([5]; mice): rather renal than hepatobiliary clearance
SUVmax PC3 PD-L1 tumor ([5]; 1-2 hour p.i., mice): 0.49 ± 0.11
SUVmax PC3 mock tumor ([5]; 1-2 hour p.i., mice): 0.31
SUVmax kidney ([5]; 1-2 hour p.i., mice): 1.32 ± 0.47
SUVmax liver ([5]; 1-2 hour p.i., mice): 17.0 ± 1.48
SUVmax PC3 PD-L1 tumor [5, 10]: 0.49
SUVmax kidney [5, 10]: 1.32
SUVmax liver [5, 10]: 17.03
SUVmax PC3 PD-L1 tumor ([5]; 4-5 hour p.i., mice): 0.81
SUVmax PC3 mock tumor ([5]; 4-5 hour p.i., mice): 0.50
SUVmax kidney ([5]; 4-5 hour p.i., mice): 2.18 ± 0.80
SUVmax liver ([5]; 4-5 hour p.i., mice): 14.4 ± 1.26
SUVmax kidney [5, 11]: 2.18
SUVmax liver [5, 11]: 14.35
SUVmax PC3 PD-L1 tumor ([5]; 24-25 hour p.i., mice): 2.47 ± 1.04
SUVmax PC3 mock tumor ([5]; 24-25 hour p.i., mice): 1.18
SUVmax kidney ([5]; 24-25 hour p.i., mice): 2.40 ± 0.60
SUVmax liver ([5]; 24-25 hour p.i., mice): 8.62 ± 0.84
SUVmax PC3 PD-L1 tumor [5, 12]: 2.47
SUVmax kidney [5, 12]: 2.40
SUVmax liver [5, 12]: 8.62
